{"source": "patent US12678440B2", "about": "“Compositions and methods for treating misfolded protein ocular disorders” (CASE WESTERN RESERVE UNIVERSITY, priority 2020, dated 2026)", "key": {"WT rhodopsin": {"test_system": "WT rhodopsin", "assay": "Immunoblot of rhodopsin, MTX plus BafA1 or MG-132, NIH3T3 (RHO^WT/GFP) cells", "assay_type": "cell-based", "method": "(§1) Cells were seeded in 6-well plates at a density of 5×10^5 cells/well and cultured at 37° C. with 5% CO2 for 17 h. The medium was replaced with a fresh medium containing a corresponding concentration of compounds. After treatment for 24 h, cells collected and lysed in 150 μL PBS containing 0.1% SDS and complete protease inhibitor cocktail with 12 s of sonication on ice. Retina samples were lysed in 300 μL per retina of PBS containing 0.1% SDS and complete protease inhibitor cocktail under 24 s of sonication on ice. Protein concentrations were determined by measurements of OD280 nm using a Nanodrop spectrometer. To immunoblot rhodopsin, one hundred μg of total protein for NIH3T3 (RHO^P23H/GFP) cells, or twenty μg of total protein for NIH3T3 (RHO^WT/GFP) cells was loaded per well onto an SDS-PAGE gel. To detect other proteins, fifty μg of total protein was loaded per well. After separation by electrophoresis in 10% and 16% SDS-PAGE gels, proteins were transferred to a nitrocellulose membrane using a wet membrane electrotransfer cassette followed by blocking with 5% bovine serum albumin in PBS containing 0.05% Tween 20 for 1 h. The membranes were incubated with primary antibodies at 4° C. overnight following with appropriate secondary antibodies for 1 h at room temperature. […]"}, "[1]": {"test_system": "SQSTM1/p62 and LC3-II in retinae of Rho^P23H/+ knock-in mice", "assay": "Autophagy flux in retinae after intravitreal injection (immunoblots of SQSTM1/p62 and LC3)", "assay_type": "in vivo, mouse", "conditions": "25 pmol IVI at PND 15, 48 h, vs PBS", "method": "as §1"}, "[2]": {"test_system": "P23H rhodopsin in Rho^P23H/P23H mice", "assay": "Retinal immunoblotting of P23H rhodopsin after IVI in Rho^P23H/P23H mice", "assay_type": "in vivo, mouse", "conditions": "IVI 25 pmol at PND 15; 24, 48 and 72 h; vs PBS; data not shown", "method": "as §1"}}, "data": [{"smiles": "CN(Cc1cnc2nc(N)nc(N)c2n1)c1ccc(C(=O)N[C@@H](CCC(=O)O)C(=O)O)cc1", "note": "[CL-009, N-[4-[[(2,4-diamino-6-pteridinyl)methyl]methylamino]benzoyl]-L-glutamic acid]", "values": [{"measurement": "WT rhodopsin level under BafA1 and MTX co-treatment (immunoblot)", "setting": "WT rhodopsin; 10 μM MTX + 100 nM BafA1, 24 h", "value": "accumulation of WT rhodopsin"}, {"measurement": "WT rhodopsin accumulation under MG-132 plus MTX (immunoblot)", "setting": "WT rhodopsin; 10 μM MTX + 5 μM MG-132, 24 h", "value": "did not"}, {"measurement": "LC3-II level in retinae", "setting": "[1]", "value": "increase"}, {"measurement": "SQSTM1/p62 level in retinae", "setting": "[1]", "value": "decrease"}, {"measurement": "P23H rhodopsin level by retinal immunoblotting", "setting": "[2]", "value": "did not see consistently and statistically significant difference"}]}]}
